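The compound was tested at five concentrations on cells cultured in 96-well plates, with a 48-hour exposure period. The concentration for 50% growth inhibition is given as GI50.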 The source made the active and inactive calls. No stated cut-off is given here; in the data, active = GI50 up to about 1.1 µM and inactive = higher.
Assays:
Test in all cases: NCI-60 cell line screen, 48 h
NCI-H522 = test system: NCI-H522
OVCAR-8 = test system: OVCAR-8
HCC 2998 = test system: HCC 2998
UACC-62 = test system: UACC-62
RXF 393 = test system: RXF 393
EKVX = test system: EKVX
SW-620 = test system: SW-620
CCRF-CEM = test system: CCRF-CEM
HOP-92 = test system: HOP-92
SK-MEL-28 = test system: SK-MEL-28
U-251 = test system: U-251
MOLT-4 = test system: MOLT-4
SF-295 = test system: SF-295
OVCAR-5 = test system: OVCAR-5
SN12C = test system: SN12C
OVCAR-3 = test system: OVCAR-3
NCI-H460 = test system: NCI-H460
LOX IMVI = test system: LOX IMVI

COC(=O)C(=O)C(C(=O)C(=O)Nc1cc(C)ccc1C)c1nc2ccc(C(=O)c3ccccc3)cc2nc1O (stereo not given)
GI50 (NCI-H522): 36.3 µM (inactive)
GI50 (OVCAR-8): > 100 µM (inactive)
GI50 (HCC 2998): > 100 µM (inactive)
GI50 (UACC-62): 37.2 µM (inactive)
GI50 (RXF 393): 46.3 µM (inactive)
GI50 (EKVX): > 100 µM (inactive)
GI50 (SW-620): > 100 µM (inactive)
GI50 (CCRF-CEM): 42.2 µM (inactive)
GI50 (HOP-92): 45.8 µM (inactive)
GI50 (SK-MEL-28): > 10 µM (inactive)
GI50 (U-251): > 100 µM (inactive)
GI50 (MOLT-4): 48.9 µM (inactive)
GI50 (SF-295): 83.6 µM (inactive)
GI50 (OVCAR-5): 43.1 µM (inactive)
GI50 (SN12C): > 100 µM (inactive)

CC(C)N1CCOC(c2ccc(O)c(O)c2)C1 (stereo not given)
GI50 (NCI-H522): > 100 µM (inactive)
GI50 (OVCAR-8): > 100 µM (inactive)
GI50 (HCC 2998): > 100 µM (inactive)
GI50 (UACC-62): > 100 µM (inactive)
GI50 (RXF 393): > 100 µM (inactive)
GI50 (EKVX): > 100 µM (inactive)
GI50 (SW-620): > 100 µM (inactive)
GI50 (CCRF-CEM): > 100 µM (inactive)
GI50 (HOP-92): > 100 µM (inactive)
GI50 (SK-MEL-28): > 100 µM (inactive)
GI50 (OVCAR-3): > 100 µM (inactive)
GI50 (MOLT-4): > 100 µM (inactive)
GI50 (SF-295): > 100 µM (inactive)
GI50 (NCI-H460): > 100 µM (inactive)
GI50 (OVCAR-5): > 100 µM (inactive)
GI50 (LOX IMVI): > 100 µM (inactive)
GI50 (SN12C): > 100 µM (inactive)

NC(=S)N/N=C1/C(=O)N(c2ccc(Cl)cc2Cl)C(=O)C(=O)C1c1nc2ccccc2s1 (stereo not given)
GI50 (NCI-H522): > 100 µM (inactive)
GI50 (OVCAR-8): > 100 µM (inactive)
GI50 (HCC 2998): > 100 µM (inactive)
GI50 (UACC-62): > 100 µM (inactive)
GI50 (RXF 393): > 100 µM (inactive)
GI50 (EKVX): > 100 µM (inactive)
GI50 (SW-620): > 100 µM (inactive)
GI50 (HOP-92): > 100 µM (inactive)
GI50 (SK-MEL-28): > 100 µM (inactive)
GI50 (OVCAR-3): > 100 µM (inactive)
GI50 (U-251): > 100 µM (inactive)
GI50 (MOLT-4): 52.1 µM (inactive)
GI50 (SF-295): > 100 µM (inactive)
GI50 (NCI-H460): > 100 µM (inactive)
GI50 (OVCAR-5): > 100 µM (inactive)
GI50 (LOX IMVI): > 100 µM (inactive)
GI50 (SN12C): > 100 µM (inactive)

O=C1NC(=O)C2C1c1[nH]c3ccccc3c1C1CCCC12 (stereo not given)
GI50 (OVCAR-8): 4.93 µM (inactive)
GI50 (HCC 2998): 6.55 µM (inactive)
GI50 (UACC-62): 5.47 µM (inactive)
GI50 (RXF 393): 2.7 µM (inactive)
GI50 (EKVX): 6.76 µM (inactive)
GI50 (SW-620): 0.951 µM (active)
GI50 (CCRF-CEM): 1.86 µM (inactive)
GI50 (SK-MEL-28): 4.1 µM (inactive)
GI50 (OVCAR-3): 1.83 µM (inactive)
GI50 (U-251): 3.1 µM (inactive)
GI50 (MOLT-4): 2.44 µM (inactive)
GI50 (SF-295): 1.29 µM (inactive)
GI50 (NCI-H460): 4.17 µM (inactive)
GI50 (OVCAR-5): > 100 µM (inactive)
GI50 (LOX IMVI): 3.52 µM (inactive)
GI50 (SN12C): 6.87 µM (inactive)

COc1ccc(NC(=O)CC/C(CC(=O)C(C)(C)C)=N\NC(=O)C(=O)NN)cc1
GI50 (NCI-H522): 44.2 µM (inactive)
GI50 (HCC 2998): > 100 µM (inactive)
GI50 (UACC-62): > 100 µM (inactive)
GI50 (RXF 393): > 100 µM (inactive)
GI50 (EKVX): > 100 µM (inactive)
GI50 (SW-620): > 100 µM (inactive)
GI50 (CCRF-CEM): > 100 µM (inactive)
GI50 (HOP-92): 56.5 µM (inactive)
GI50 (SK-MEL-28): > 100 µM (inactive)
GI50 (OVCAR-3): > 100 µM (inactive)
GI50 (U-251): > 100 µM (inactive)
GI50 (MOLT-4): > 100 µM (inactive)
GI50 (SF-295): > 100 µM (inactive)
GI50 (NCI-H460): > 100 µM (inactive)
GI50 (OVCAR-5): > 100 µM (inactive)
GI50 (LOX IMVI): > 100 µM (inactive)
GI50 (SN12C): > 100 µM (inactive)

CN(C(=O)C12C3C4C1C1C2C3C41I)C(C)(C)C (stereo not given)
GI50 (NCI-H522): 48 µM (inactive)
GI50 (OVCAR-8): > 100 µM (inactive)
GI50 (HCC 2998): > 60 µM (inactive)
GI50 (UACC-62): > 83 µM (inactive)
GI50 (EKVX): 64.9 µM (inactive)
GI50 (SW-620): > 100 µM (inactive)
GI50 (SK-MEL-28): > 100 µM (inactive)
GI50 (OVCAR-3): 70.1 µM (inactive)
GI50 (U-251): > 91.2 µM (inactive)
GI50 (SF-295): > 100 µM (inactive)
GI50 (NCI-H460): > 100 µM (inactive)
GI50 (OVCAR-5): > 100 µM (inactive)
GI50 (LOX IMVI): > 100 µM (inactive)
GI50 (SN12C): > 100 µM (inactive)

O=c1[nH]cnc2c(COCCO)c[nH]c12
GI50 (NCI-H522): > 100 µM (inactive)
GI50 (OVCAR-8): > 100 µM (inactive)
GI50 (UACC-62): > 100 µM (inactive)
GI50 (RXF 393): > 100 µM (inactive)
GI50 (EKVX): > 100 µM (inactive)
GI50 (SW-620): > 100 µM (inactive)
GI50 (CCRF-CEM): > 100 µM (inactive)
GI50 (HOP-92): > 100 µM (inactive)
GI50 (SK-MEL-28): > 100 µM (inactive)
GI50 (OVCAR-3): > 100 µM (inactive)
GI50 (U-251): > 100 µM (inactive)
GI50 (MOLT-4): > 100 µM (inactive)
GI50 (SF-295): > 100 µM (inactive)
GI50 (NCI-H460): > 100 µM (inactive)
GI50 (OVCAR-5): > 100 µM (inactive)
GI50 (LOX IMVI): > 100 µM (inactive)
GI50 (SN12C): > 100 µM (inactive)

CN(C)/C=C/C(=CC=[N+](C)C)/C=C/N(C)C.[O-][Cl+3]([O-])([O-])[O-]
GI50 (NCI-H522): > 100 µM (inactive)
GI50 (OVCAR-8): > 100 µM (inactive)
GI50 (HCC 2998): > 100 µM (inactive)
GI50 (UACC-62): > 100 µM (inactive)
GI50 (RXF 393): > 100 µM (inactive)
GI50 (SW-620): > 100 µM (inactive)
GI50 (CCRF-CEM): 60.3 µM (inactive)
GI50 (HOP-92): > 100 µM (inactive)
GI50 (SK-MEL-28): > 100 µM (inactive)
GI50 (OVCAR-3): > 100 µM (inactive)
GI50 (U-251): > 100 µM (inactive)
GI50 (MOLT-4): 90.4 µM (inactive)
GI50 (SF-295): > 100 µM (inactive)
GI50 (NCI-H460): > 100 µM (inactive)
GI50 (OVCAR-5): > 100 µM (inactive)
GI50 (LOX IMVI): 57 µM (inactive)
GI50 (SN12C): > 100 µM (inactive)
